Columns and labels:
[1] = target: T1, Gonadotropin-releasing hormone receptor (Homo sapiens, UniProt P30968); test: Inhibitory activity evaluated against human Gonadotropin-releasing hormone receptor
T1 sequence (P30968 whole entry): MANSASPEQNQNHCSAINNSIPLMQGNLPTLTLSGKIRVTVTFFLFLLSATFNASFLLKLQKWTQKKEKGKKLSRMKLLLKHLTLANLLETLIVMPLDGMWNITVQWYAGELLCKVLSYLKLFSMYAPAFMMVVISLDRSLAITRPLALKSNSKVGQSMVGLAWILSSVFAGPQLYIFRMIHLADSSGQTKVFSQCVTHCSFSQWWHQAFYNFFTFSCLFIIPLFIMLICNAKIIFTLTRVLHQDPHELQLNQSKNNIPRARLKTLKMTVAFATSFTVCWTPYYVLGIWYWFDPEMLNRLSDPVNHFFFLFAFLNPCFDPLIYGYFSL

[2] = target: T2, Gonadotropin-releasing hormone receptor (Rattus norvegicus, UniProt P30969); test: Inhibition of rat gonadotropin-releasing hormone receptor
T2 sequence (P30969 whole entry): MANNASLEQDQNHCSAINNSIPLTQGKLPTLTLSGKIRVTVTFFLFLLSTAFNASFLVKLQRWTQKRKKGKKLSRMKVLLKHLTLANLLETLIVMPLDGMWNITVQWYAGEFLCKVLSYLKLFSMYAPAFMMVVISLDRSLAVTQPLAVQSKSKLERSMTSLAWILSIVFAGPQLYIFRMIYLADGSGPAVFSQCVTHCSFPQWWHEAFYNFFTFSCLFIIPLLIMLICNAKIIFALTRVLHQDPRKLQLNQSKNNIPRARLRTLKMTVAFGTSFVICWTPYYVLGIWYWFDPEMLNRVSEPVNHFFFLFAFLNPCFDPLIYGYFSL

Structure (SMILES) | IC50 [1] [nM] | IC50 [2] [nM]
Cc1cc(C)cc(-c2[nH]c3ccccc3c2CCNCCCCc2ccc(O)cc2)c1 | 357 | 27
Cc1cc(C)cc(-c2[nH]c3ccccc3c2CCNCCCCc2ccncc2)c1 |  | 16
Cc1cc(C)cc(-c2[nH]c3ccccc3c2CCNCCCCc2cnc3ccccc3c2)c1 |  | 36
Cc1cc(C)cc(-c2[nH]c3ccccc3c2CCNCCCc2cccnc2)c1 |  | 200
Cc1cc(C)cc(-c2[nH]c3ccccc3c2CCNCCCCc2ccccn2)c1 |  | 450
Cc1cc(C)cc(-c2[nH]c3ccccc3c2CCNCCCCc2ccc(N)nc2)c1 |  | 41
Cc1cc(C)cc(-c2[nH]c3ccccc3c2CCNCc2ccncc2)c1 |  | 9000
Cc1cc(C)cc(-c2[nH]c3ccccc3c2CCNCCCCc2ccc(NS(C)(=O)=O)cc2)c1 | 170 | 7
Cc1cc(C)cc(-c2[nH]c3ccccc3c2CCNCCCCCc2cccnc2)c1 |  | 50
CC(=O)Nc1ccc(CCCCNCCc2c(-c3cc(C)cc(C)c3)[nH]c3ccccc23)cn1 |  | 120
COc1ccc(CCCCNCCc2c(-c3cc(C)cc(C)c3)[nH]c3ccccc23)cn1 |  | 90
Cc1cc(C)cc(-c2[nH]c3ccccc3c2CCNCCCCc2cnc[nH]2)c1 |  | 450
Cc1cc(C)cc(-c2[nH]c3ccccc3c2CCNCCCCCc2ccncc2)c1 |  | 150
Cc1cc(C)cc(-c2[nH]c3ccccc3c2CCNCCc2cccnc2)c1 |  | 200
Cc1cc(C)cc(-c2[nH]c3ccccc3c2CCNCc2cccnc2)c1 |  | 4500
Cc1cc(C)cc(-c2[nH]c3ccccc3c2CCNCCCCc2ccc3c(n2)NCCC3)c1 |  | 1260
Cc1cc(C)cc(-c2[nH]c3ccccc3c2CCNCCCCc2cccnc2)c1 |  | 40
Cc1cc(C)cc(-c2[nH]c3ccccc3c2CCNCCCCc2ccc(=O)[nH]c2)c1 |  | 57
Cc1cc(C)cc(-c2[nH]c3ccccc3c2CCNCCc2ccccn2)c1 |  | 2170
Cc1cc(C)cc(-c2[nH]c3ccccc3c2CCNCCCCc2ccc(NS(C)(=O)=O)nc2)c1 |  | 45
Cc1cc(C)cc(-c2[nH]c3ccccc3c2CCNCCCc2ccncc2)c1 |  | 210
Cc1cc(C)cc(-c2[nH]c3ccccc3c2CCNCc2ccccn2)c1 |  | > 10000
Cc1cc(C)cc(-c2[nH]c3ccccc3c2CCNCCc2ccncc2)c1 |  | 160
Cc1cc(C)cc(-c2[nH]c3ccccc3c2CCNCCCCc2cncnc2)c1 |  | 270

Source: ChEMBL document CHEMBL1134029, “Heterocyclic derivatives of 2-(3,5-dimethylphenyl)tryptamine as GnRH receptor antagonists” (Bioorg Med Chem Lett, 2001)
